In brackets after ≈: the same amount, converted by molar mass.
Key:
Assay type in all cases: functional
[1] = system: Rhizopus; assay: Antifungal activity against Rhizopus after 72 to 96 hr by two-fold serial dilution method
[2] = system: Aspergillus flavus; assay: Antifungal activity against Aspergillus flavus after 72 to 96 hr by two-foldserial dilution method
[3] = system: Klebsiella pneumoniae; assay: Antibacterial activity against Klebsiella pneumoniae after 24 hr by two fold serial dilution method
[4] = system: Escherichia coli; assay: Antibacterial activity against Escherichia coli after 24 hr by two-fold serial dilution method
[5] = system: Staphylococcus aureus; assay: Antibacterial activity against Staphylococcus aureus after 24 hr by two fold serial dilution method
[6] = system: Pseudomonas aeruginosa; assay: Antibacterial activity against Pseudomonas aeruginosa after 24 hr by two-fold serial dilution method
[7] = system: Aspergillus niger; assay: Antifungal activity against Aspergillus niger after 72 to 96 hr by two-foldserial dilution method

Compound | MIC [1] | MIC [2] | MIC [3] | MIC [4] | MIC [5] | MIC [6] | MIC [7]
CC1/C(=N\O)CC(c2ccco2)N(C=O)C1c1ccco1 (centres undefined) | 50 µg/mL (≈ 173 µM) | 50 µg/mL (≈ 173 µM) | 100 µg/mL (≈ 347 µM) | 50 µg/mL (≈ 173 µM) | 100 µg/mL (≈ 347 µM) | 100 µg/mL (≈ 347 µM) | 25 µg/mL (≈ 86.7 µM)
CCC1/C(=N\O)CC(c2ccco2)N(C=O)C1c1ccco1 (centres undefined) | 25 µg/mL (≈ 82.7 µM) | 50 µg/mL (≈ 165 µM) | 50 µg/mL (≈ 165 µM) | 50 µg/mL (≈ 165 µM) | 100 µg/mL (≈ 331 µM) | 100 µg/mL (≈ 331 µM) | 25 µg/mL (≈ 82.7 µM)
CC(C)C1/C(=N\O)CC(c2ccco2)N(C=O)C1c1ccco1 (centres undefined) | 50 µg/mL (≈ 158 µM) | 12.5 µg/mL (≈ 39.5 µM) | 25 µg/mL (≈ 79 µM) | 25 µg/mL (≈ 79 µM) | 50 µg/mL (≈ 158 µM) | 50 µg/mL (≈ 158 µM) | 12.5 µg/mL (≈ 39.5 µM)
O=CN1C(c2ccco2)C/C(=N/O)C(Cc2ccccc2)C1c1ccco1 (centres undefined) | 50 µg/mL (≈ 137 µM) | 25 µg/mL (≈ 68.6 µM) | 25 µg/mL (≈ 68.6 µM) | 25 µg/mL (≈ 68.6 µM) | 25 µg/mL (≈ 68.6 µM) | 25 µg/mL (≈ 68.6 µM) | 25 µg/mL (≈ 68.6 µM)
C[C@@H]1[C@H](O)[C@@H](C)/C=C/C=C/C=C/C=C/C=C/C=C/C=C/[C@H](O[C@@H]2O[C@H](C)[C@@H](O)[C@H](N)[C@@H]2O)C[C@@H]2O[C@](O)(C[C@@H](O)C[C@@H](O)[C@H](O)CC[C@@H](O)C[C@@H](O)CC(=O)O[C@H]1C)C[C@H](O)[C@H]2C(=O)O [AMPHOTERICIN B] | 50 µg/mL (≈ 54.1 µM) | 25 µg/mL (≈ 27.1 µM) | – | – | – | – | 50 µg/mL (≈ 54.1 µM)
O=C(O)c1cn(C2CC2)c2cc(N3CCNCC3)c(F)cc2c1=O [CIPROFLOXACIN] | – | – | – | 25 µg/mL (≈ 75.4 µM) | 50 µg/mL (≈ 151 µM) | 50 µg/mL (≈ 151 µM) | –

From ChEMBL document CHEMBL3044883, “Synthesis, spectral, theoretical, and antimicrobial screening of some heterocyclic oximes” (2011)
